Experimental data from patent US11608323B2 (SYNGENTA LIMITED, priority 2013, dated 2023).

How the values were obtained:
Assay type in all cases: in vivo
AMARE [1] = test: Pre-emergence herbicidal activity, glasshouse pot test; settings: rate 1000 g/Ha, evaluated after 13 days, scale 0-5
Procedure: (§1) Seeds of a variety of test species were sown in standard soil in pots. After cultivation for one day (pre-emergence) under controlled conditions in a glasshouse (at 24/16° C., day/night; 14 hours light; 65% humidity), the plants were sprayed with an aqueous spray solution derived from the formulation of the technical active ingredient in acetone/water (50:50) solution containing 0.5% Tween 20 (polyoxyethelyene sorbitan monolaurate, CAS RN 9005-64-5). The test plants were then grown in a glasshouse under controlled conditions (at 24/16° C., day/night; 14 hours light; 65% humidity) and watered twice daily. After 13 days, the test was evaluated (5=total damage to plant; 0=no damage to plant).

SETFA [2] = test: as above; settings: rate 1000 g/Ha, evaluated after 13 days, scale 0-5
Procedure: as §1

ZEAMX [3] = test: as above; settings: rate 1000 g/Ha, evaluated after 13 days, scale 0-5
Procedure: as §1

ABUTH [4] = test: as above; settings: rate 1000 g/Ha, evaluated after 13 days, scale 0-5
Procedure: as §1

ECHCG [5] = test: as above; settings: rate 1000 g/Ha, evaluated after 13 days, scale 0-5
Procedure: as §1

AMARE [6] = test: Post-emergence herbicidal activity, glasshouse pot test; settings: Amaranthus retroflexus; application post-emergence; rate 1000 g/Ha; evaluated after 13 days
Procedure: (§2) Seeds of a variety of test species were sown in standard soil in pots. After 8 days cultivation (post-emergence) under controlled conditions in a glasshouse (at 24/16° C., day/night; 14 hours light; 65% humidity), the plants were sprayed with an aqueous spray solution derived from the formulation of the technical active ingredient in acetone/water (50:50) solution containing 0.5% Tween 20 (polyoxyethelyene sorbitan monolaurate, CAS RN 9005-64-5). The test plants were then grown in a glasshouse under controlled conditions (at 24/16° C., day/night; 14 hours light; 65% humidity) and watered twice daily. After 13 days, the test was evaluated (5=total damage to plant; 0=no damage to plant).

SETFA [7] = test: as above; settings: Setaria faberi; application post-emergence; rate 1000 g/Ha; evaluated after 13 days
Procedure: as §2

ZEAMX [8] = test: as above; settings: Zea mays; application post-emergence; rate 1000 g/Ha; evaluated after 13 days
Procedure: as §2

ABUTH [9] = test: as above; settings: Abutilon theophrasti; application post-emergence; rate 1000 g/Ha; evaluated after 13 days
Procedure: as §2

ECHCG [10] = test: as above; settings: Echinochloa crus-galli; application post-emergence; rate 1000 g/Ha; evaluated after 13 days
Procedure: as §2

Row | Structure (SMILES) | AMARE damage score, application pre-emergence (AMARE [1]) | SETFA damage score, application pre-emergence (SETFA [2]) | ZEAMX damage score, application pre-emergence (ZEAMX [3]) | ABUTH damage score, application pre-emergence (ABUTH [4]) | ECHCG damage score, application pre-emergence (ECHCG [5]) | Post-emergence herbicidal activity AMARE (damage score 0-5) (AMARE [6]) | Post-emergence herbicidal activity SETFA (damage score 0-5) (SETFA [7]) | Post-emergence herbicidal activity ZEAMX (damage score 0-5) (ZEAMX [8]) | Post-emergence herbicidal activity ABUTH (damage score 0-5) (ABUTH [9]) | Post-emergence herbicidal activity ECHCG (damage score 0-5) (ECHCG [10])
1 | CN1C(=O)N(c2cc(C(F)(F)F)ccn2)C(O)C1CC(F)(F)F (stereo not drawn) [Compound A68] | 0 | 0 | 0 | 0 | 0 | 0 | 0 | 0 | 0 | 0
2 | CCOC1C(O)N(c2cc(Cl)c(C(=O)NC(C)(C)C)cn2)C(=O)N1C (stereo not drawn) [Compound A69] | 5 | 5 | 2 | 5 | 5 | 4 | 4 | 3 | 5 | 5
3 | CON1C(=O)N(c2cc(Cl)c(C(=O)NC(C)(C)C)cn2)C(O)C1C (stereo not drawn) [Compound A70] | 5 | 5 | 3 | 5 | 5 | 5 | 5 | 5 | 5 | 5
4 | CC1C(O)N(c2cc(Cl)c(C(=O)NC(C)(C)C)cn2)C(=O)N1C (stereo not drawn) [Compound A71] | 5 | 0 | 3 | 5 | 5 | 5 | 5 | 4 | 5 | 5
5 | CON1C(=O)N(c2cc(C(F)(F)C(F)(F)F)ccn2)C(O)C1C (stereo not drawn) [Compound A73] | 5 | 5 | 3 | 5 | 4 | 5 | 5 | 3 | 5 | 5
6 | CC1C(O)N(c2ccc(C(F)(F)F)cn2)C(=O)N1C (stereo not drawn) [Compound A74] | 5 | 4 | 3 | 5 | 4 | 5 | 5 | 3 | 5 | 4
7 | O=C1N2CCOC2C(O)N1c1cc(C(F)(F)F)ccn1 (stereo not drawn) [Compound A75] | 5 | 4 | 2 | 5 | 4 | 5 | 5 | 2 | 5 | 5
8 | COCN1C(=O)N(c2cc(C(F)(F)F)ccn2)C(O)C1C (stereo not drawn) [Compound A76] | 5 | 4 | 2 | 5 | 3 | 5 | 4 | 1 | 5 | 4
9 | COC[C@@H]1C(O)N(c2cc(C(F)(F)F)ccn2)C(=O)N1C (stereo partly drawn) [Compound A77] | 5 | 5 | 3 | 5 | 5 | 5 | 5 | 5 | 5 | 5
10 | COC[C@H]1C(O)N(c2cc(C(F)(F)F)ccn2)C(=O)N1C (stereo partly drawn) [Compound A78] | 5 | 3 | 1 | 5 | 4 | 5 | 3 | 0 | 5 | 5
11 | CON1C(=O)N(c2cc(C(F)(F)F)c(C)cn2)C(O)[C@@H]1C (stereo partly drawn) [Compound A79] | 5 | 5 | 2 | 5 | 5 | 5 | 5 | 4 | 5 | 5
12 | CON1C(=O)N(c2ccc(C(F)(F)F)cn2)C(O)C1C (stereo not drawn) [Compound A80] | 5 | 4 | 2 | 5 | 5 | 5 | 5 | 4 | 5 | 5
